Laboratory results reported in patent US20210277020A1, “HETEROCYCLIC COMPOUNDS AS MONOACYLGLYCEROL LIPASE INHIBITORS” (Hoffmann-La Roche Inc., priority 2018, published 2021).

What follows are compounds tested against T1, MAGL (recombinant wild-type) (Homo sapiens, UniProt Q99685) (assay: 4-NPA assay: MAGL inhibition followed by hydrolysis of 4-nitrophenylacetate, absorbance at 405 nm). Conditions: measured in 4-NPA assay (footnote [b]); 1 nM MAGL, 300 μM 4-nitrophenylacetate.
T1 sequence (Q99685 1-303): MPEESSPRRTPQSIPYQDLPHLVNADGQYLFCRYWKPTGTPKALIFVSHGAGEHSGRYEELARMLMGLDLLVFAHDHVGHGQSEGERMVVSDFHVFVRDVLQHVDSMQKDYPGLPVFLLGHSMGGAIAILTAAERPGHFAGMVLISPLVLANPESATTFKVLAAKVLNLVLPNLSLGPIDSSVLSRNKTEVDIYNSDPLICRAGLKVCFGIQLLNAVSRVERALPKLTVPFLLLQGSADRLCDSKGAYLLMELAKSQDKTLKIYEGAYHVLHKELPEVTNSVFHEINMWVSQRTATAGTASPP
Assay type: biochemical
Description: Compounds were profiled for MAGL inhibitory activity by measuring the enzymatic activity of MAGL by following the hydrolysis of 4-nitrophenylacetate resulting in 4-nitrophenol, which absorbs at 405-412 nm (G. G. Muccioli, G. Labar, D. M. Lambert, Chem. Bio. Chem. 2008, 9, 2704-2710). This assay is hereinafter abbreviated “4-NPA assay”.
The 4-NPA assay was carried out in 384 well assay plates (black with clear bottom, non-binding surface treated, Corning Ref. 3655) in a total volume of 40 μL. Compound dilutions were made in 100% DMSO (VWR Chemicals 23500.297) in a polypropylene plate in 3-fold dilution steps to give a final concentration range in the assay from 25 μM to 1.7 nM. 1 μL compound dilutions (100% DMSO) were added to 19 μL MAGL (recombinant wild-type) in assay buffer (50 mM TRIS (GIBCO, 15567-027), 1 mM EDTA (Fluka, 03690-100 mL)). The plate was shaked for 1 min at 2000 rpm (Variomag Teleshake) and then incubated for 15 min at RT. To start the reaction, 20 μL 4-Nitrophenlyacetate (Sigma N-8130) in assay buffer with 6% EtOH was added. The final concentrations in the assay were 1 nM MAGL and 300 μM 4-Nitrophenylacetate. After shaking (1 min, 2000 rpm) and 5 min incubation at RT, the absorbance at 405 nm was measured for a fist time (Molecular Devices, SpectraMax Paradigm). A second measurement was then done after incubation for 80 min at RT. From the two measurements, the slope was calculated by subtracting the first from the second measurement.

Row | IC50 | SMILES
1 | 519 nM | CN(C(=O)Cc1cccc(C(F)(F)F)c1)C1CCN(C(=O)N2CC[C@@H]3OCC(=O)N[C@@H]3C2)CC1 [Example 86, N-[1-[(4aR,8aS)-3-oxo-4,4a,5,7,8,8a-hexahydropyrido[4,3-b][1,4]oxazine-6-carbonyl]piperidin-4-yl]-N-methyl-2-[3-(trifluoromethyl)phenyl]acetamide]
2 | 1990 nM | CN(C(=O)c1ccc(C(F)(F)F)cc1)C1CCN(C(=O)N2CC[C@@H]3OCC(=O)N[C@@H]3C2)CC1 [Example 85, N-[1-[(4aR,8aS)-3-oxo-4,4a,5,7,8,8a-hexahydropyrido[4,3-b][1,4]oxazine-6-carbonyl]piperidin-4-yl]-N-methyl-4-(trifluoromethyl)benzamide]
3 | 2900 nM | O=C1CO[C@H]2CCN(C(=O)N3CCC(C(=O)NCc4ccccc4)CC3)C[C@H]2N1 [Example 65, N-Benzyl-1-((4aR,8aS)-3-oxooctahydro-2H-pyrido[4,3-b][1,4]oxazine-6-carbonyl)piperidine-4-carboxamide]
4 | 4400 nM | O=C1CO[C@H]2CCN(C(=O)N3CCC(C(=O)N(CCO)Cc4ccccc4)CC3)C[C@H]2N1 [Example 63, N-Benzyl-N-(2-hydroxyethyl)-1-((4aR,8aS)-3-oxooctahydro-2H-pyrido[4,3-b][1,4]oxazine-6-carbonyl)piperidine-4-carboxamide]

These compounds were tested against T2, MAGL (Homo sapiens, UniProt Q99685) (assay: 2-AG assay: MAGL inhibition followed by hydrolysis of 2-arachidonoylglycerol to arachidonic acid, mass spectrometry). Conditions: measured in 2-AG assay (footnote [a]); substrate 2-arachidonoylglycerol 8 μM, 30 min at RT.
T2 sequence (Q99685 1-303): T1 sequence (Q99685 1-303)
Assay type: biochemical
In short: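 Test compounds (final […], 3-fold steps) preincubated 15 min at RT with […] in 50 mM Tris, 1 mM EDTA, 0.01% Tween; 8 μM 2-arachidonoylglycerol then added for 30 min at RT. Acetonitrile quench; arachidonic acid measured by RapidFire SPE–MS/MS, activity from arachidonic acid/d8-arachidonic acid ratio.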

Row | SMILES | IC50
5 | O=C1CO[C@H]2CCN(C(=O)N3CC([S+]([O-])c4ccc(C(F)(F)F)cc4Cl)C3)C[C@H]2N1 (single isomer, unassigned) [Example 146] | 2720 nM
6 | O=C1CO[C@H]2CCN(C(=O)N3CC(C#Cc4ccccc4Br)C3)C[C@H]2N1 [Example 171, (4aR,8aS)-6-[3-[2-(2-Bromophenyl)ethynyl]azetidine-1-carbonyl]-4,4a,5,7,8,8a-hexahydropyrido[4,3-b][1,4]oxazin-3-one] | 7 nM
7 | O=C1CO[C@H]2CCN(C(=O)N3CC(C#Cc4ccc(C(F)(F)F)c(Cl)c4)C3)C[C@H]2N1 [Example 160, (4aR,8aS)-6-(3-((3-Chloro-4-(trifluoromethyl)phenyl)ethynyl)azetidine-1-carbonyl)hexahydro-2H-pyrido[4,3-b][1,4]oxazin-3(4H)-one] | 1 nM
8 | O=C1CO[C@H]2CCN(C(=O)N3CC(C#Cc4ccc(Cl)cc4C(F)(F)F)C3)C[C@H]2N1 [Example 164, (4aR,8aS)-6-[3-[2-[4-Chloro-2-(trifluoromethyl)phenyl]ethynyl]azetidine-1-carbonyl]-4,4a,5,7,8,8a-hexahydropyrido[4,3-b][1,4]oxazin-3-one] | 3 nM
9 | O=C1CO[C@H]2CCN(C(=O)N3CC(NC(=O)c4ccc(F)cc4Cl)C3)C[C@H]2N1 [Example 78, 2-chloro-4-fluoro-N-(1-((4aR,8aS)-3-oxooctahydro-2H-pyrido[4,3-b][1,4]oxazine-6-carbonyl)azetidin-3-yl)benzamide] | 4600 nM
10 | O=C1CO[C@H]2CCN(C(=O)N3CC(O)(C#Cc4ccccc4Cl)C3)C[C@H]2N1 [Example 190, (4aR,8aS)-6-[3-[2-(2-Chlorophenyl)ethynyl]-3-hydroxyazetidine-1-carbonyl]-4,4a,5,7,8,8a-hexahydropyrido[4,3-b][1,4]oxazin-3-one] | 535 nM
11 | O=C1CO[C@H]2CCN(C(=O)N3CC(C#Cc4ccc(C(F)(F)F)cc4F)C3)C[C@H]2N1 [Example 158, (4aR,8aS)-6-[3-[2-[2-Fluoro-4-(trifluoromethyl)phenyl]ethynyl]azetidine-1-carbonyl]-4,4a,5,7,8,8a-hexahydropyrido[4,3-b][1,4]oxazin-3-one] | 5 nM
12 | O=C1CO[C@H]2CCN(C(=O)N3CC(C#Cc4ccccc4OC(F)(F)F)C3)C[C@H]2N1 [Example 170, (4aR,8aS)-6-[3-[2-[2-(Trifluoromethoxy)phenyl]ethynyl]azetidine-1-carbonyl]-4,4a,5,7,8,8a-hexahydropyrido[4,3-b][1,4]oxazin-3-one] | 4 nM
13 | O=C1CO[C@H]2CCN(C(=O)N3CC([S+]([O-])c4ccc(C(F)(F)F)cc4Cl)C3)C[C@H]2N1 (single isomer, unassigned) [Example 147] | 12500 nM

The next lines start with the values.

Row | IC50 | SMILES
14 | 25 nM | Cc1cccc(C)c1C#CC1CCN(C(=O)N2CC[C@@H]3OCC(=O)N[C@@H]3C2)CC1 [Example 195, (4aR,8aS)-6-(4-((2,6-Dimethylphenyl)ethynyl)piperidine-1-carbonyl)hexahydro-2H-pyrido[4,3-b][1,4]oxazin-3(4H)-one]
15 | 23 nM | O=C1CO[C@H]2CCN(C(=O)N3CCC(C#Cc4ccc(F)cc4Cl)CC3)C[C@H]2N1 [Example 128, (+)-(4aR,8aS)-6-[4-[2-(2-Chloro-4-fluorophenyl)ethynyl]piperidine-1-carbonyl]-4,4a,5,7,8,8a-hexahydropyrido[4,3-b][1,4]oxazin-3-one]
16 | 82 nM | O=C1CO[C@H]2CCN(C(=O)N3CCC(C#Cc4ccc(Cl)cc4)CC3)C[C@H]2N1 [Example 130, (+)-(4aR,8aS)-6-[4-[2-(4-Chlorophenyl)ethynyl]piperidine-1-carbonyl]-4,4a,5,7,8,8a-hexahydropyrido[4,3-b][1,4]oxazin-3-one]
17 | 10 nM | O=C1CO[C@H]2CCN(C(=O)N3CC(C#Cc4ccc(C(F)(F)F)cc4)C3)C[C@H]2N1 [Example 167, (4aR,8aS)-6-[3-[2-[4-(Trifluoromethyl)phenyl]ethynyl]azetidine-1-carbonyl]-4,4a,5,7,8,8a-hexahydropyrido[4,3-b][1,4]oxazin-3-one]
18 | 12 nM | O=C1CO[C@H]2CCN(C(=O)N3CC(C#Cc4ccc(Cl)cc4F)C3)C[C@H]2N1 [Example 174, (4aR,8aS)-6-[3-[2-(4-Chloro-2-fluorophenyl)ethynyl]azetidine-1-carbonyl]-4,4a,5,7,8,8a-hexahydropyrido[4,3-b][1,4]oxazin-3-one]
19 | 16 nM | O=C1CO[C@H]2CCN(C(=O)N3CC(C#Cc4cccc(F)c4Cl)C3)C[C@H]2N1 [Example 172, (4aR,8aS)-6-(3-((2-Chloro-3fluorophenyl)ethynyl)azetidine-1-carbonyl)hexahydro-2H-pyrido[4,3-b][1,4]oxazin-3(4H)-one]
